{"source": "patent US8389573B2", "about": "“Glycyrrhetinic acid derivatives” (Wellington Laboratories Inc., priority 2006, dated 2013)", "key": {"PPARγ": {"tested_on": "PPARγ", "experiment": "PPARγ-GAL4/pGAL4 transfection and luciferase assay in HT-29 cells", "format": "cell-based", "procedure": "The Gal4 reporter containing 5× Gal4 response elements (pGal4) was kindly provided by Dr. Marty Mayo (University of North Carolina, Chapel Hill, N.C.). Gal4 DBD-PPARγ construct (gPPARγ) was a gift of Dr. Jennifer L. Oberfield (GlaxoSmithKline Research and Development, Research Triangle Park, N.C.). PPRE3-luc construct contains three tandem PPREs with a minimal TATA sequence in pGL2.\nColon Cancer cell lines SW480 and HT29 (1×10^5 cells/well) were plated in 12-well plates in DMEM/Ham's F-12 media supplemented with 2.5% charcoal-stripped FBS. After 16 h, various amounts of DNA [i.e., Gal4Luc (0.4 μg), β-Gal (0.04 μg), Gal4PPAR and PPRE3-Luc (0.04 μg)] were transfected using LipofectAMINE™ reagent (Invitrogen) following the manufacturer's protocol. Five hours after transfection, the transfection mix was replaced with complete media containing either vehicle (DMSO) or the indicated ligand for 20 to 22 h. Cells were then lysed with 100 μl of 1× reporter lysis buffer, and 30 μl of cell extract was used for luciferase and […] assays. A LumiCount™ luminometer (PerkinElmer Life and Analytical Sciences) was used to quantitate luciferase and β-Gal activities, and the luciferase activities were normalized to β-Gal activity. Results are expressed as means±S.E. for at least three replicate determinations for each treatment group"}, "[1]": {"tested_on": "Sp protein levels in RKO cells", "experiment": "Sp protein expression (gel) in RKO cells", "format": "cell-based"}, "[2]": {"tested_on": "LNCaP human prostate carcinoma cells", "experiment": "Cell proliferation assay in LNCaP cells", "format": "cell-based", "conditions": "96 hr, read-out: IC50, inhibition of LNCaP cell growth", "procedure": "Cell lines: LNCaP human prostate carcinoma cells were obtained from American Type Culture Collection (Manassas, Va.). Fetal bovine serum was obtained from JRH Biosciences, Lenexa, Kans. LNCaP cells were maintained in RPMI 1640 (Sigma Chemical, St. Louis, Mo.) supplemented with 0.22% sodium bicarbonate, 0.011% sodium pyruvate, 0.45% glucose, 0.24% HEPES, 10% FBS, and 10 mL/L of 100× antibiotic/antimycotic solution (Sigma). Cells were maintained at 37° C. in the presence of 5% CO2.\nCell Proliferation and DNA Fragmentation Assays: LNCaP prostate cancer cells (2×10^4 per well) were added to 12-well plates and allowed to attach for 24 hr. The medium was then changed to DMEM/Ham's F-12 media containing 2.5% charcoal-stripped FBS, and either vehicle (DMSO) or the indicated C-DIMs were added. Fresh medium and indicated compounds were added every 48 hr, and cells were then trypsinized and counted after 2, 4, and 6 days using a Coulter Z1 cell counter (Beckman Coulter, Fullerton, Calif.). Each experiment was done in triplicate, and results are expressed as means±S.E. for each set of three experiments. The DNA fragmentation assay was performed using a BioVision Apoptotic DNA ladder extraction kit (BioVision, Mountain View, Calif.) according to the manufacturer's protocol."}, "p21 promoter": {"tested_on": "p21 promoter", "experiment": "p21 promoter construct luciferase assay in LNCaP cells", "format": "cell-based", "conditions": "1-5 μM"}, "PSA mRNA": {"tested_on": "PSA mRNA", "experiment": "Real-time PCR of PSA mRNA in LNCaP cells", "format": "cell-based, human", "conditions": "12 or 18 hr", "procedure": "Real-Time PCR: Total RNA was isolated using the RNeasy Protect Mini kit (QIAGEN, Valencia, Calif.) according to the manufacturer's protocol. RNA was eluted with 30 μl of RNasefree water and stored at −80° C. RNA was reverse transcribed using Superscript II reverse transcriptase (Invitrogen) according to the manufacturer's protocol. cDNA was prepared from the LNCaP cell line using a combination of oligodeoxythymidylic acid and dNTP mix (Applied Biosystems, Foster City, Calif.) and Superscript II (Invitrogen). Each PCR was carried out in triplicate in a 25-μl volume using SYBR Green Master mix (Applied Biosystems) for 15 min at 95° C. for initial denaturing, followed by 40 cycles of 95° C. for 30 s and 60° C. for 1 min in the ABI Prism 7700 sequence detection system (Applied Biosystems). The ABI Dissociation Curves software was used after a brief thermal protocol (95° C. 15 s and 60° C. 20 s, followed by a slow ramp to 95° C.) to control for multiple species in each PCR amplification. The comparative CT method was used for relative quantitation of samples. Values for each gene were normalized to expression levels of TATA-binding protein. Primers were purchased from Integrated DNA Technologies (Coralville, Iowa). The sequences of the primers used for reverse transcription-PCR were as follows: AR forward, 5′-GTA CCC TGG CGG CAT GGT-3′ [SEQ ID NO: 1] and AR reverse, 5′-CCCATTTCGCTTTTGACACA-3′ [SEQ ID NO: 2]; PSA forward, 5′-GCATTGAACCAGAGGAGTTCTTG-3′ [SEQ ID NO: 3] and PSA reverse, 5′-TTG CGC ACA CAC GTC ATT G-3′ [SEQ ID NO: 4]; and TATA-binding protein forward, 5′-TGCACAGGAGCCAAGAGTGAA-3′ [SEQ ID NO: 5] and reverse, 5′-CACATCACAGCTCCCCACCA-3′ [SEQ ID NO: 6]."}, "PSA promoter": {"tested_on": "PSA promoter", "experiment": "PSA-luc promoter luciferase assay in LNCaP cells", "format": "cell-based", "conditions": "basal", "source_text": "Transfections: The Gal4 reporter construct containing 5× Gal4 response elements (pGal4) was kindly provided by Dr. Marty Mayo (University of North Carolina, Chapel Hill, N.C.). The Gal4 DBD-PPARγ construct was a gift of Dr. Jennifer L. Oberfield (Glaxo Wellcome Research and Development, Research Triangle Park, N.C.). The PPRE-luc construct contains three tandem PPREs with a minimal TATA sequence linked to the luciferase gene in pGL2. The AR-luc construct containing the −5400 to +580 region of the androgen receptor promoter was provided by Dr. Donald J. Tindall (Mayo Clinic, Rochester, Minn.), and the PSA-luc construct containing the 5.8-kilobase region of the PSA promoter was provided by Dr. Hong-Wu Cheng (University of California, Davis, Calif.). LNCaP cells (1×10^5) were seeded in 12-well plates in DMEM/Ham's F-12 media supplemented with 2.5% charcoal-stripped FBS and grown overnight. Transient transfections were performed using Lipofectamine reagent (Invitrogen) according to the protocol provided by the manufacturer. Transfection studies were performed using 0.4 μg of Gal4Luc, 0.04 μg of β-galactosidase, 0.04 μg of Gal4 DBD-PPARγ, 0.4 μg of AR-luc, and 0.3 μg of PSA-luc. […] A Lumicount luminometer (PerkinElmer Life and Analytical Sciences) was used to quantify luciferase and β-galactosidase activities, and the luciferase activities were normalized to β-galactosidase activity."}}, "data": [{"smiles": "COC(=O)[C@@]1(C)CC[C@]2(C)CC[C@]3(C)C(=CC(=O)[C@@H]4[C@@]5(C)C=C(C#N)C(=O)C(C)(C)[C@@H]5CC[C@]43C)[C@@H]2C1", "note": "[β-CDODA-Me, Methyl 2-cyano-3,11-dioxo-18β-oleana-1,12-dien-30-oate]", "values": [{"measurement": "PPARγ transactivation (GAL4-PPARγ/GAL4-Luc)", "setting": "PPARγ", "value": "induced transactivation"}, {"measurement": "Sp protein expression", "setting": "[1]", "value": "decreases Sp protein expression"}, {"measurement": "VEGF protein expression", "setting": "[1]", "value": "decreased VEGF protein expression"}, {"measurement": "decrease of Sp protein expression with T007 or proteasome inhibitors", "setting": "[1]", "value": "not reversed"}, {"measurement": "IC50", "setting": "[2]", "value": "~1000", "unit": "nM"}, {"measurement": "luciferase activity of p21 promoter constructs", "setting": "p21 promoter", "value": "induces luciferase activity"}, {"measurement": "PSA mRNA levels", "setting": "PSA mRNA", "value": "downregulation of PSA mRNA levels"}, {"measurement": "PSA mRNA response after cotreatment with T007", "setting": "PSA mRNA", "value": "not inhibited"}, {"measurement": "downregulation of PSA mRNA levels after cotreatment with cycloheximide", "setting": "PSA mRNA", "value": "significantly inhibited"}, {"measurement": "transactivation of PSA-Luc construct", "setting": "PSA promoter", "value": "inhibited transactivation"}]}]}
